These results are taken from patent US4163801A, “Treatment of animals with 2,6-bis(2-hydroxybenzyl)phenols to eradicate trematodes” (ICI Australia Limited, priority 1976, dated 1979).

For experiment [1], the system named is sheep liver fluke (Fasciola hepatica). As to the kind of experiment: Flukicidal activity in sheep infected with sheep liver fluke: faecal egg count and post mortem adult fluke count after single dose (Table II). The following applies: for Post Mortem Results: No of adult fluke: sheep liver; for Faecal Egg Count: sheep. It is filed as in vivo. How it is done: Compositions suitable for use as experimental aqueous oral drenches were prepared in the following general manner. A mixture of the required amount of active ingredient was mixed with 40 ml of an aqueous 0.25% w/w solution of "Lubrol E" ("Lubrol E" is a Registered Trade Mark for an octylphenol ethoxylate). The mixture was ball-milled for 30 minutes and the resultant suspension was used as an aqueous drench.
Compositions suitable for use as experimental injectable solutions were prepared by dissolving the chemical in propylene glycol and adjusting the concentration to 10% w/v active ingredient.
Compositions prepared by the methods of Examples 21 and 22 were used as a single dose to test sheep infected with sheep liver fluke (Fasciola hepatica). The number of liver fluke eggs in the faeces was measured at the time of treatment and at selected intervals up to 14 days after treatment. The sheep were killed on day 14 and the number of adult fluke in the liver counted. The amount and structure of active ingredient in each composition and the results of treatment of a sheep with that composition are given in the Table II below. The compositions were administered either by oral drench (oral) or by sub-cutaneous injection (s/c).

For the next experiment, the system named is immature fluke. As to the kind of experiment: Effectiveness against immature fluke (Table II footnotes). The format is in vivo, Fasciola hepatica. The conditions noted are these: oral route.

For `Oc1c(Br)cc(F)cc1Cc1cc(Cl)cc(Cc2cc(F)cc(Br)c2O)c1O` [Compound 2, 2,6-bis(3-bromo-5-fluoro-2-hydroxybenzyl)-4-chlorophenol], the “Post Mortem Results: No of adult fluke” value worked out at 0 in experiment [1] (3.1 mg/kg oral, killed day 14); 0 in experiment [1] (6.5 mg/kg oral, killed day 14); 0 in experiment [1] (12.5 mg/kg oral, killed day 14); 0 in experiment [1] (12.5 mg/kg s/c, killed day 14). Further, the “Faecal Egg Count” value was determined as 20 Eggs per g faeces in experiment [1] (3.1 mg/kg oral, day 7); 0 Eggs per g faeces in experiment [1] (3.1 mg/kg oral, day 14); 40 Eggs per g faeces in experiment [1] (6.5 mg/kg oral, day 7); 0 Eggs per g faeces in experiment [1] (6.5 mg/kg oral, day 14); 130 Eggs per g faeces in experiment [1] (12.5 mg/kg oral, day 2); 0 Eggs per g faeces in experiment [1] (12.5 mg/kg oral, day 7). In addition, the “Faecal Egg Count” value in experiment [1] (12.5 mg/kg oral, day 13) is given as 0 Eggs per g faeces; in experiment [1] (12.5 mg/kg s/c, day 3), 3800 Eggs per g faeces; in experiment [1] (12.5 mg/kg s/c, day 7), 0 Eggs per g faeces; in experiment [1] (12.5 mg/kg s/c, day 14), 0 Eggs per g faeces.

Consider `Oc1c(Br)cc(Cl)cc1Cc1cc(F)cc(Cc2cc(Cl)cc(Br)c2O)c1O` [Compound 4, 2,6-bis(3-bromo-5-chloro-2-hydroxybenzyl)-4-fluorophenol], for which the “Post Mortem Results: No of adult fluke” value in experiment [1] (1.0 mg/kg oral, killed day 14) was 0; in experiment [1] (2.0 mg/kg s/c, killed day 14) it was 0; in experiment [1] (3.1 mg/kg oral, killed day 14), 0; in experiment [1] (6.3 mg/kg oral, killed day 14) it was 0; in experiment [1] (12.5 mg/kg oral, Day 29), 0. Moreover, the “Faecal Egg Count” value worked out at 20 Eggs per g faeces in experiment [1] (2.0 mg/kg s/c, day 7); 0 Eggs per g faeces in experiment [1] (2.0 mg/kg s/c, day 14); 0 Eggs per g faeces in experiment [1] (3.1 mg/kg oral, day 2); 10 Eggs per g faeces in experiment [1] (3.1 mg/kg oral, day 7); 0 Eggs per g faeces in experiment [1] (3.1 mg/kg oral, day 14); 70 Eggs per g faeces in experiment [1] (6.3 mg/kg oral, day 2). The “Faecal Egg Count” value amounted to 0 Eggs per g faeces in experiment [1] (6.3 mg/kg oral, day 7); 2520 Eggs per g faeces in experiment [1] (12.5 mg/kg oral, day 2); 200 Eggs per g faeces in experiment [1] (12.5 mg/kg oral, day 7); 0 Eggs per g faeces in experiment [1] (12.5 mg/kg oral, day 14). For the same compound, the “effective against immature fluke” value was found to be 49% in the experiment with immature fluke (5.0 mg/kg), 85% in the experiment on immature fluke (7.5 mg/kg) and 98% in the experiment with immature fluke (10 mg/kg).

Turning to `O=[N+]([O-])c1cc(Cl)cc(Cc2cc(Cl)cc(Cc3cc(Cl)cc([N+](=O)[O-])c3O)c2O)c1O` [Compound 9, 2,6-Bis(5-chloro-2-hydroxy-3-nitrobenzyl)-4-chlorophenol], in experiment [1] (12.5 mg/kg s/c, killed day 14), the “Post Mortem Results: No of adult fluke” value is given as 3. For the same compound, the “Faecal Egg Count” value in experiment [1] (12.5 mg/kg s/c, day 7) is listed as 0 Eggs per g faeces; in experiment [1] (12.5 mg/kg s/c, day 14), 10 Eggs per g faeces.

`Oc1c(Br)cc(Br)cc1Cc1cc(Cl)cc(Cc2cc(Br)cc(Br)c2O)c1O` [Compound 11]: in experiment [1] (12.5 mg/kg oral, killed day 14), the “Post Mortem Results: No of adult fluke” value is listed as 12. In addition, the “Faecal Egg Count” value in experiment [1] (12.5 mg/kg oral, day 7) is 130 Eggs per g faeces; in experiment [1] (12.5 mg/kg oral, day 14) it was 40 Eggs per g faeces.

For the compound `Oc1c(Br)cc(Cl)cc1Cc1cc(Cl)cc(Cc2cc(Cl)cc(Br)c2O)c1O` [Compound 12], the “Post Mortem Results: No of adult fluke” value came out at 0 in experiment [1] (4.0 mg/kg oral, killed day 14) and 0 in experiment [1] (12.5 mg/kg oral, killed day 14). Also, the “Faecal Egg Count” value in experiment [1] (4.0 mg/kg oral, day 7) is recorded as 0 Eggs per g faeces; in experiment [1] (4.0 mg/kg oral, day 14) it was 0 Eggs per g faeces; in experiment [1] (12.5 mg/kg oral, day 7) it was 40 Eggs per g faeces; in experiment [1] (12.5 mg/kg oral, day 14) it was 0 Eggs per g faeces.

Take `Oc1c(Br)cc(Br)cc1Cc1cc(F)cc(Cc2cc(Br)cc(Br)c2O)c1O` [Compound 14]: the “Post Mortem Results: No of adult fluke” value in experiment [1] (4.0 mg/kg oral, killed day 14) was determined as 1; in experiment [1] (12.5 mg/kg oral, killed day 14), 0. The “Faecal Egg Count” value came to 0 Eggs per g faeces in experiment [1] (4.0 mg/kg oral, day 7); 0 Eggs per g faeces in experiment [1] (4.0 mg/kg oral, day 14); 60 Eggs per g faeces in experiment [1] (12.5 mg/kg oral, day 7); 0 Eggs per g faeces in experiment [1] (12.5 mg/kg oral, day 14).

In the case of `Oc1c(Cl)cc(F)cc1Cc1cc(Cl)cc(Cc2cc(F)cc(Cl)c2O)c1O` [Compound 17], the “Post Mortem Results: No of adult fluke” value in experiment [1] (12.5 mg/kg oral, killed day 14) is on record as 2. For the same compound, the “Faecal Egg Count” value in experiment [1] (12.5 mg/kg oral, day 7) was 150 Eggs per g faeces; in experiment [1] (12.5 mg/kg oral, day 14), 20 Eggs per g faeces; in experiment [1] (12.5 mg/kg oral, day 18), 20 Eggs per g faeces.

As for `Oc1c(Cl)cc(Cl)cc1Cc1cc(F)cc(Cc2cc(Cl)cc(Cl)c2O)c1O` [Compound 18, 2,6-bis(3,5-dichloro-2-hydroxybenzyl)-4-fluorophenol], the “Post Mortem Results: No of adult fluke” value in experiment [1] (12.5 mg/kg oral, killed day 14) stood at 0. The “Faecal Egg Count” value in experiment [1] (12.5 mg/kg oral, day 7) amounted to 0 Eggs per g faeces; in experiment [1] (12.5 mg/kg oral, day 14), 0 Eggs per g faeces.

As to `Oc1c(Br)cc(F)cc1Cc1cc(F)cc(Cc2cc(F)cc(Br)c2O)c1O` [Compound 22], the “Post Mortem Results: No of adult fluke” value in experiment [1] (6.3 mg/kg oral, killed day 14) is reported as 0; in experiment [1] (12.5 mg/kg oral, killed day 14) it was 0. In addition, the “Faecal Egg Count” value in experiment [1] (6.3 mg/kg oral, day 7) is 0 Eggs per g faeces; in experiment [1] (6.3 mg/kg oral, day 14) it was 0 Eggs per g faeces; in experiment [1] (12.5 mg/kg oral, day 7) it was 1340 Eggs per g faeces; in experiment [1] (12.5 mg/kg oral, day 14), 0 Eggs per g faeces.

Consider `Oc1c(I)cc(F)cc1Cc1cc(Cl)cc(Cc2cc(F)cc(I)c2O)c1O` [Compound 24], for which the “Post Mortem Results: No of adult fluke” value in experiment [1] (12.5 mg/kg oral, killed day 14) turned out to be 0. Further, the “Faecal Egg Count” value in experiment [1] (12.5 mg/kg oral, day 7) is 20 Eggs per g faeces; in experiment [1] (12.5 mg/kg oral, day 14), 0 Eggs per g faeces.

On to `Oc1c(Br)cc(F)cc1Cc1cc(Br)cc(Cc2cc(F)cc(Br)c2O)c1O` [Compound 25], for which, in experiment [1] (12.5 mg/kg oral, killed day 14), the “Post Mortem Results: No of adult fluke” value amounted to 0. The “Faecal Egg Count” value in experiment [1] (12.5 mg/kg oral, day 7) was 0 Eggs per g faeces; in experiment [1] (12.5 mg/kg oral, day 14) it was 0 Eggs per g faeces.

For the compound `Oc1c(I)cc(Cl)cc1Cc1cc(F)cc(Cc2cc(Cl)cc(I)c2O)c1O` [Compound 29], the “Post Mortem Results: No of adult fluke” value in experiment [1] (6.3 mg/kg oral, killed day 14) came out at 0; in experiment [1] (12.5 mg/kg oral, killed day 14), 0. Further, the “Faecal Egg Count” value in experiment [1] (6.3 mg/kg oral, day 7) amounted to 0 Eggs per g faeces; in experiment [1] (6.3 mg/kg oral, day 14), 0 Eggs per g faeces; in experiment [1] (12.5 mg/kg oral, day 7), 10 Eggs per g faeces; in experiment [1] (12.5 mg/kg oral, day 14), 0 Eggs per g faeces. For the same compound, in the experiment on immature fluke (10 mg/kg), the “effective against immature fluke” value is given as 81%.

Consider `CC(c1cc(Cl)cc(Cl)c1O)c1cc(F)cc(Cc2cc(Cl)cc(Br)c2O)c1O` (stereo not drawn) [Compound 30, 2-(3-Bromo-5chloro-2-hydroxybenzyl)-6-[1-(3,5-dichloro-2-hydroxyphenyl)ethyl]-4-fluorophenol], for which the “Post Mortem Results: No of adult fluke” value in experiment [1] (12.5 mg/kg oral, killed day 14) is reported as 0. The “Faecal Egg Count” value in experiment [1] (12.5 mg/kg oral, day 7) is recorded as 0 Eggs per g faeces; in experiment [1] (12.5 mg/kg oral, day 14) it was 0 Eggs per g faeces.

Consider `CC(=O)Oc1c(Cc2cc(Cl)cc(Br)c2O)cc(F)cc1Cc1cc(Cl)cc(Br)c1O` [Compound 31], for which the “Post Mortem Results: No of adult fluke” value in experiment [1] (12.5 mg/kg oral, killed day 14) came out at 0. Also, the “Faecal Egg Count” value in experiment [1] (12.5 mg/kg oral, day 7) is recorded as 220 Eggs per g faeces; in experiment [1] (12.5 mg/kg oral, day 14), 10 Eggs per g faeces.

In the case of `Oc1c(I)cc(F)cc1Cc1cc(F)cc(Cc2cc(F)cc(I)c2O)c1O` [Compound 38], in experiment [1] (6.3 mg/kg oral, killed day 14), the “Post Mortem Results: No of adult fluke” value worked out at 0. Moreover, the “Faecal Egg Count” value is on record as 50 Eggs per g faeces in experiment [1] (4.0 mg/kg oral, day 7); 80 Eggs per g faeces in experiment [1] (4.0 mg/kg oral, day 14); 190 Eggs per g faeces in experiment [1] (6.3 mg/kg oral, day 7); 0 Eggs per g faeces in experiment [1] (6.3 mg/kg oral, day 14).

With `CC(c1cc(F)cc(Br)c1O)c1cc(Cl)cc(Cc2cc(F)cc(Br)c2O)c1O` (stereo not drawn) [Compound 39], the “Post Mortem Results: No of adult fluke” value in experiment [1] (3.0 mg/kg oral, killed day 14) was determined as 0; in experiment [1] (6.0 mg/kg oral, killed day 14) it was 0. The “Faecal Egg Count” value in experiment [1] (3.0 mg/kg oral, day 7) was determined as 210 Eggs per g faeces; in experiment [1] (3.0 mg/kg oral, day 14), 0 Eggs per g faeces; in experiment [1] (6.0 mg/kg oral, day 7) it was 60 Eggs per g faeces; in experiment [1] (6.0 mg/kg oral, day 14) it was 0 Eggs per g faeces.

`CC(c1cc(F)cc(Br)c1O)c1cc(Cl)cc(C(C)c2cc(F)cc(Br)c2O)c1O` (stereo not drawn) [Compound 40, 2,6-Bis[1-(3-bromo-5-fluoro-2-hydroxyphenyl)ethyl]-4-chlorophenol]: in experiment [1] (12.5 mg/kg oral, killed day 14), the “Post Mortem Results: No of adult fluke” value turned out to be 11. For the same compound, the “Faecal Egg Count” value in experiment [1] (12.5 mg/kg oral, day 7) was 0 Eggs per g faeces; in experiment [1] (12.5 mg/kg oral, day 14) it was 0 Eggs per g faeces.

In the case of `CC(c1cc(Cl)cc(Cl)c1O)c1cc(F)cc(Cc2cc(F)cc(Br)c2O)c1O` (stereo not drawn) [Compound 46], in experiment [1] (12.5 mg/kg oral, killed day 14), the “Post Mortem Results: No of adult fluke” value is listed as 0. Also, the “Faecal Egg Count” value in experiment [1] (12.5 mg/kg oral, day 7) came to 0 Eggs per g faeces; in experiment [1] (12.5 mg/kg oral, day 14) it was 0 Eggs per g faeces.
